From US9956199B2, “Chromane-like cyclic prenylflavonoids for the medical intervention in neurological disorders” (priority 2011, dated 2018) come the findings set out here.

Assay [1] concerns MEF E16 cells. Briefly: immunocytochemical staining for DCX and Map2ab in MEF cultures (neuronal differentiation). Format: cell-based, mouse. To be noted: Neurobasal plus 1% FCS, 10 μM, 7 days; for number of DCX/Map2ab double positive cells: FIG. 3B. Here is the method: Following the results from the Luciferase assay described in Example 17, the inventors examined the ability of compounds according to the invention and reference compounds to promote differentiation of MEF E16 cells, using immunocytochemical staining with DCX and Map2ab antibodies.
Compound 1a at 10 and 100 μM was analyzed for its effect on the expression of the neuronal specific markers DCX and Map2ab using primary fetal mouse brain derived cells stimulated in DMEM-KO media.
Mouse embryonic day 16 forebrain cells were prepared as described in Example 17. Before seeding the cells, glass-coverslips were coated and prepared. Glass-coverslips (13 mm) (Menzel GmbH, Braunschweig, Germany) were incubated in 1 M HCl at 65° C. overnight and stored in isopropanol until further use. Coverslips were put into 24-well test plates and air-dried. Subsequently coverslips were incubated for 1 h with 100 μg/ml Poly-L-ornithin solution at 37° C. After washing three times with sterile water coverslips were incubated with 5 μg/ml Laminin solution for 2 h. Immediately after removal of the Laminin solution cells were seeded (40.000 cells/well) in DMEM-KO plus supplement or in NB-B27 plus 1% FCS medium. One day later, cells had attached to the substrate. Cells were stimulated with the above-mentioned substances (in DMEM-KO plus supplement medium: 10 μM and 100 μM; in NB-B27 plus 1% FCS medium: 10 μM) for 3 or 7 days. In the 7 day group, medium including the substances was replaced after three days. Cultures were maintained at 37° C. in a humidified incubator with 5% CO2.
Cells were fixed with phosphate-buffered 4% paraformaldehyde (Sigma-Aldrich, Taufkirchen, Germany). […] The specimens were incubated overnight at 4° C. with the primary antibodies at the following dilutions in FSGB: rabbit anti Doublecortin (DCX) 1:500 (NEB, Frankfurt, Germany) and mouse anti-Map 2a+2b 1:400 (Sigma-Aldrich, Taufkirchen, Germany). After washing three times with FSGB, cells were incubated with the species-specific secondary antibodies, which were conjugated to fluorochromes, for 2 hours in the dark at room temperature. To remove unbound secondary antibodies, cells were washed again with PBS. Nuclear counterstaining was performed with 4′,6′-diamidino-2-phenylindole dihydrochloride hydrate (DAPI) at […] (Sigma Aldrich, Taufkirchen, Germany). Finally, cells were washed again three times with PBS and mounted on microscope slides using Prolong Antifade reagent (Invitrogen, Oreg., USA).
The immunostainings were examined using Olympus IX81 inverted research microscope and the software Volocity 5.3.1. To quantify the number of cells, five indiscriminately chosen visual fields per coverslip were selected under a focus of 40 times. The total number of cells (DAPI positive cells), the number of DCX positive, Map2ab positive, and DCX/Map2ab double positive cells was determined.

Assay [2] deals with promoter of the neuronal precursor specific gene doublecortin (DCX). Kind of assay: DCX promoter firefly-luciferase assay in primary fetal mouse brain derived (MEF) cells. In kind it is cell-based. The settings on record: DCX promoter-luciferase transfected MEF cells, stimulated three days. As to the method:
Primary mouse embryonic day 16 forebrain (MEF) cultures were prepared as follows. Pregnant NMRI mice (Charles River Laboratories, Sulzfeld, Germany) were sacrificed and the uteri promptly removed and immersed in ice-cold Dulbecco's phosphate buffered saline solution—DPBS (PAA, Pasching, Austria). Eight embryonic day (E) 16 embryos were released from the uteri; forebrains were taken out, separated from surrounding tissues and mechanically dissociated using a razor blade. Subsequently the dissociated cells were collected by 5 min centrifugation at 120×g. The pellet was resuspended in 10 ml PPD-solution containing 0.01% papain (Worthington, England), 0.1% Dispasell (Roche, Basel, Switzerland), 0.01% DNasel (Worthington, England), 12.4 mM MgSO4 dissolved in HBSS w/o Ca/Mg (PAA, Pasching, Austria). The cell suspension was incubated at 37° C. and triturated every ten minutes for three times. The cell suspension was then centrifuged at 120×g for 5 minutes and washed three times in Neurobasal medium (Gibco BRL, Germany) supplemented with 2% (v/v) B27 (Gibco BRL, Karlsruhe), 2 mM L-glutamine, 100 μg/ml Penicillin/Streptomycin (PAN Biotech GmbH, Aidenbach, Germany). Finally, the cell preparation was resuspended in 12 ml Neurobasal medium supplemented with B27 (Gibco BRL, Karlsruhe), 2 mM L-glutamine, 100 μg/ml Penicillin/Streptomycin (PAN Biotech GmbH, Aidenbach, Germany), 20 ng/ml Epidermal Growth Factor—rhEGF, 20 ng/ml Fibroblast Growth Factor—rhFGF (R&D Systems, Wiesbaden-Nordenstadt, Germany) and 2 μg/ml Heparin (Sigma-Aldrich, Taufkirchen, Germany) (NB plus all), seeded in one T75 flask (TPP, Switzerland) and maintained in a humidified atmosphere at 37° C. and 5% CO2. […] On this day (day 2), half of the medium was refreshed and on day 4 cells were passaged. To passage the cells, the culture medium containing the floating neurospheres was collected in a 15 ml tube (Corning, Lowell, USA) and centrifuged at 120×g for 5 min. For dissociation, the pellet was resuspended in 500 μl Accutase (PAA, Pasching, Austria) and triturated using a 1 ml pipette. The cell suspension was incubated at 37° C. for 10 min, and then, 10 ml media were added. Cell number was determined by Trypan blue exclusion.
Luciferase assays were performed using a noncommercial dual luciferase enzyme assay system (Dyer et al., 2000, Anal Biochem). In this system, a co-transfection with pDCX-Luci and a control vector driving Renilla-luciferase under the CMV promoter was performed. The two different luciferases have different specific substrates and, therefore, the DCX regulatory region driven firefly luciferase activity can be distinguished from CMV driven Renilla-luciferase. For analysis, the firefly luciferase activity was normalized against the CMV driven Renilla-luciferase. For each transfection reaction, a volume containing two million cells was transferred into a 15 ml tube (Corning, Lowell, USA), centrifuged at 120×g for 5 min to pellet the cells and resuspended in 100 μl Amaxa Mouse Neural Stem Cell Nucleofector Kit (Lonza, Kln, Germany). Then, pDCX-Luci (Karl, 2005) and pRL3 (Promega, Mannheim, Germany) (5 μg each) were added and the entire reaction mix was transferred into an Amaxa transfection cuvette. Transfection was done using the A-033 program in the Amaxa Nucleofector II (Lonza, Kln, Germany). Transfected cells were then pipetted into 20 ml of DMEM knockout medium (Gibco BRL, Germany) containing 20% serum replacement supplement (PAN Biotech GmbH, Aidenbach, Germany), 2 mM L-glutamine (PAN Biotech GmbH, Aidenbach, Germany) and 100 μg/ml Penicillin/Streptomycin (PAN Biotech GmbH, Aidenbach, Germany) (DMEM-KO plus supplements) in a 50 ml tube (Corning, Lowell, USA). From this resulting cell suspension, 200 μl per well were plated in Poly-Ornithine/Laminin coated 96-well-luciferase plates (Wimmer & Macho, Wels, Austria) in a cell density of 20.000 cells per well, as described herein below.

Entries after “also recorded” stand apart in the source; their conditions may differ.

As for `Cc1c(C)c2c(c(C)c1O)CCC(C)(CCCC(C)CCCC(C)CCCC(C)C)O2` (racemic) [tocopherol, 2,5,7,8-tetramethyl-2-(4,8,12 trimethyltridecyl)chroman-6-ol], the “number of DCX/Map2ab double positive cells” value in assay [1] was “marginally increase”.

In the case of `CC(C)=CCc1c(O)cc2c(c1O)C(=O)CC(c1ccc(O)cc1)O2` (stereo not shown) [6-prenylnaringenin, 5,7-dihydroxy-2-(4-hydroxyphenyl)-6-(3-methylbut2-en-1yl)chroman-4-one], in assay [1], the “number of DCX/Map2ab double positive cells” value is reported as “Good results”.

Consider `CC(C)=CCc1c(O)cc(O)c2c1OC(c1ccc(O)cc1)CC2=O` (stereo not shown) [8-prenylnaringenin, 5,7-dihydroxy-2-(4-hydroxyphenyl)-8-(3-methylbut2-en-1yl)chroman-4-one], for which the “number of DCX/Map2ab double positive cells” value in assay [1] is “Good results”.

In the case of `COc1cc2c(c(O)c1C(C)=O)C=CC(C)(C)O2` [ENDF4, 1-(5-hydroxy-7-methoxy-2,2-dimethyl-2H-chromen-6-yl)-ethanone], in assay [1] (FIG. 3A), the “number of DCX positive cells” value is on record as “strongly enhanced the number of DCX positive cells”. Also, in assay [1], the “number of DCX/Map2ab double positive cells” value is “Good results; also recorded: increased slightly more”. In assay [2], the “stimulatory effect on the DCX promoter activity (FF/R relative to control)” value (“stimulatory effect … (FF/R relative to control)” below) is recorded as “did not have any significant stimulatory effect”.

`Cc1c(C)c2c(c(C)c1O)CCC(C)(C)O2` [chromanol, 2,2,5,7,8-Pentamethyl-6-chromanol, reference compound]: the “number of DCX/Map2ab double positive cells” value in assay [1] is on record as “marginally increase”. Besides, the “stimulatory effect … (FF/R relative to control)” value in assay [2] was “did not have any significant stimulatory effect”.

For `COc1cc(O)c(CC=C(C)C)c2c1C(=O)CC(c1ccc(O)cc1)O2` (stereo not shown) [isoxanthohumol, 7-hydroxy-2-(4-hydroxyphenyl)-5-methoxy-8-(3-methylbut-2-en-1-yl)chroman-4-one, reference compound], the “number of DCX/Map2ab double positive cells” value in assay [1] is reported as “Good results”. Moreover, the “stimulatory effect … (FF/R relative to control)” value in assay [2] is listed as “did not have any significant stimulatory effect”.
